Measured values from ChEMBL document CHEMBL1201862, “PubChem BioAssay data set” (2004).
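In this assay, cells in 96-well plates receive the compound at five concentrations for 48 hours. Endpoints are linearly interpolated between the surrounding concentrations. At the GI50, growth is halved.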 The source made the active and inactive calls. No stated cut-off is given here; in the data, active = GI50 up to about 1.1 µM and inactive = higher.

What was measured:
Assay in all cases: NCI-60 cell line screen, 48 h
OVCAR-3 = tested on: OVCAR-3
OVCAR-8 = tested on: OVCAR-8
HT-29 = tested on: HT-29
HL-60 = tested on: HL-60
SF-295 = tested on: SF-295
UACC-257 = tested on: UACC-257
SNB-75 = tested on: SNB-75
OVCAR-5 = tested on: OVCAR-5
K562 = tested on: K562
CCRF-CEM = tested on: CCRF-CEM
NCI-H23 = tested on: NCI-H23
LOX IMVI = tested on: LOX IMVI
SF-539 = tested on: SF-539
NCI-H226 = tested on: NCI-H226
A549 = tested on: A549
SK-MEL-28 = tested on: SK-MEL-28
RXF 393 = tested on: RXF 393

SMILES	GI50 (OVCAR-3)	GI50 (OVCAR-8)	GI50 (HT-29)	GI50 (HL-60)	GI50 (SF-295)	GI50 (UACC-257)	GI50 (SNB-75)	GI50 (OVCAR-5)	GI50 (K562)	GI50 (CCRF-CEM)	GI50 (NCI-H23)	GI50 (LOX IMVI)	GI50 (SF-539)	GI50 (NCI-H226)	GI50 (A549)	GI50 (SK-MEL-28)	GI50 (RXF 393)
CCOC(=O)Oc1ccc2[nH]c3c(C)cc(N)c(C)c3c2c1	> 100 µM (inactive)	> 100 µM (inactive)	> 100 µM (inactive)	55.5 µM (inactive)	> 100 µM (inactive)	> 100 µM (inactive)	> 100 µM (inactive)	> 100 µM (inactive)	> 100 µM (inactive)	> 100 µM (inactive)	> 100 µM (inactive)	> 100 µM (inactive)	> 100 µM (inactive)	> 100 µM (inactive)	> 100 µM (inactive)	> 100 µM (inactive)	–
CCOC(=O)C1=C(OC(OCC)C(C)[Se]c2ccccc2)CCC1 (stereo unspecified)	14.7 µM (inactive)	16 µM (inactive)	28.1 µM (inactive)	4.16 µM (inactive)	19.8 µM (inactive)	39.7 µM (inactive)	30.1 µM (inactive)	51.2 µM (inactive)	42.8 µM (inactive)	16.5 µM (inactive)	12.4 µM (inactive)	7.21 µM (inactive)	17.5 µM (inactive)	16.6 µM (inactive)	49.9 µM (inactive)	22.6 µM (inactive)	15.7 µM (inactive)
O=P(NCCCO)(OCc1ccccc1)N(CCCl)CCCl (stereo unspecified)	> 100 µM (inactive)	> 100 µM (inactive)	> 100 µM (inactive)	> 100 µM (inactive)	> 100 µM (inactive)	> 100 µM (inactive)	> 100 µM (inactive)	> 100 µM (inactive)	> 100 µM (inactive)	> 100 µM (inactive)	> 100 µM (inactive)	> 100 µM (inactive)	> 100 µM (inactive)	> 100 µM (inactive)	> 100 µM (inactive)	> 100 µM (inactive)	> 100 µM (inactive)
O=C(Nc1cccs1)c1c(O)[nH]c(=S)[nH]c1=O	> 100 µM (inactive)	> 100 µM (inactive)	–	–	> 100 µM (inactive)	> 100 µM (inactive)	–	> 100 µM (inactive)	> 100 µM (inactive)	> 100 µM (inactive)	> 100 µM (inactive)	> 100 µM (inactive)	> 100 µM (inactive)	> 100 µM (inactive)	> 100 µM (inactive)	> 100 µM (inactive)	–
O=C1NC(=S)NC(=O)C1=CC1CC1	–	> 100 µM (inactive)	> 100 µM (inactive)	> 100 µM (inactive)	> 100 µM (inactive)	> 100 µM (inactive)	46.3 µM (inactive)	> 100 µM (inactive)	> 100 µM (inactive)	> 100 µM (inactive)	> 100 µM (inactive)	> 100 µM (inactive)	> 100 µM (inactive)	> 100 µM (inactive)	> 100 µM (inactive)	> 100 µM (inactive)	> 100 µM (inactive)
C[C@]12CCC(=O)C=C1CC[C@@H]1[C@@H]2[C@@H](O)C[C@@]2(C)[C@H]1CC[C@]2(O)C(=O)COC(=O)CCC1CCCC1 [HYDROCORTISONE CYPIONATE]	> 100 µM (inactive)	> 100 µM (inactive)	> 100 µM (inactive)	72.9 µM (inactive)	> 100 µM (inactive)	> 100 µM (inactive)	> 100 µM (inactive)	0.0881 µM (active)	–	95.9 µM (inactive)	> 100 µM (inactive)	> 100 µM (inactive)	> 100 µM (inactive)	0.0728 µM (active)	> 100 µM (inactive)	> 100 µM (inactive)	> 100 µM (inactive)
N=C(N)SCc1cccc([N+](=O)[O-])c1	18.6 µM (inactive)	26.2 µM (inactive)	30.1 µM (inactive)	18.8 µM (inactive)	38.9 µM (inactive)	27.2 µM (inactive)	30.3 µM (inactive)	48.2 µM (inactive)	22.1 µM (inactive)	27.7 µM (inactive)	30.5 µM (inactive)	31.9 µM (inactive)	25.5 µM (inactive)	24.3 µM (inactive)	39.7 µM (inactive)	31.8 µM (inactive)	24.8 µM (inactive)
COC(=O)C(=Cc1cc(OC)c(OC)c(OC)c1-c1cc2c(cc1C(C)=O)OCO2)C(=O)OC	26.5 µM (inactive)	59 µM (inactive)	40.6 µM (inactive)	34.2 µM (inactive)	48.5 µM (inactive)	52 µM (inactive)	–	43 µM (inactive)	37.6 µM (inactive)	30.6 µM (inactive)	34.7 µM (inactive)	30.8 µM (inactive)	43.8 µM (inactive)	50.9 µM (inactive)	55.6 µM (inactive)	33.1 µM (inactive)	33.7 µM (inactive)
CCOc1ccc(/N=N/c2ccc3oc(=O)c(/C(C)=N\NC(=O)CC(=O)Nc4ccc(Cl)cc4)cc3c2)cc1	15.5 µM (inactive)	16.1 µM (inactive)	–	–	16.5 µM (inactive)	–	–	99.5 µM (inactive)	17.3 µM (inactive)	0.337 µM (active)	18.7 µM (inactive)	13.2 µM (inactive)	17.5 µM (inactive)	88.9 µM (inactive)	20.7 µM (inactive)	36.1 µM (inactive)	14.2 µM (inactive)
COc1cc2c(c3oc(-c4ccc5c(c4)OCO5)c(O)c(=O)c13)CCC(C)(C)O2	> 100 µM (inactive)	> 100 µM (inactive)	> 100 µM (inactive)	> 100 µM (inactive)	> 100 µM (inactive)	–	12.3 µM (inactive)	–	> 100 µM (inactive)	79.8 µM (inactive)	> 100 µM (inactive)	> 100 µM (inactive)	> 100 µM (inactive)	> 100 µM (inactive)	> 100 µM (inactive)	> 100 µM (inactive)	–
CC(=O)OC1COC(N2C(=O)/C(=N\NC(N)=S)c3cc(Br)ccc32)C(OC(C)=O)C1OC(C)=O (stereo unspecified)	51.5 µM (inactive)	49.1 µM (inactive)	> 100 µM (inactive)	25.6 µM (inactive)	45.3 µM (inactive)	> 100 µM (inactive)	–	> 100 µM (inactive)	48 µM (inactive)	5.77 µM (inactive)	67.9 µM (inactive)	38.9 µM (inactive)	43.5 µM (inactive)	> 100 µM (inactive)	43.3 µM (inactive)	25.4 µM (inactive)	63.5 µM (inactive)
CC(=O)Oc1cc2c(cc1OC(C)=O)OCC(c1ccc(C)cc1)C2 (stereo unspecified)	21.6 µM (inactive)	26.8 µM (inactive)	29.2 µM (inactive)	2.61 µM (inactive)	28.7 µM (inactive)	21.4 µM (inactive)	9.42 µM (inactive)	33.5 µM (inactive)	17.1 µM (inactive)	4.07 µM (inactive)	15.9 µM (inactive)	18.7 µM (inactive)	19.5 µM (inactive)	27.1 µM (inactive)	16 µM (inactive)	20 µM (inactive)	17.5 µM (inactive)
Cc1ccccc1NC(=O)c1c(C)oc2c1C(=O)c1ccccc1C2=O	14.4 µM (inactive)	41.5 µM (inactive)	35.9 µM (inactive)	19.8 µM (inactive)	40.3 µM (inactive)	21.4 µM (inactive)	39.7 µM (inactive)	> 100 µM (inactive)	22.4 µM (inactive)	19.4 µM (inactive)	29.7 µM (inactive)	16 µM (inactive)	25.9 µM (inactive)	> 38.7 µM (inactive)	32.7 µM (inactive)	27.5 µM (inactive)	> 100 µM (inactive)
CC(=O)NNc1nc(C)c(C(=O)NNC(=O)C(=O)Nc2c(C)cccc2C(C)C)s1	36.9 µM (inactive)	94.2 µM (inactive)	> 100 µM (inactive)	46.7 µM (inactive)	89.9 µM (inactive)	64.3 µM (inactive)	–	> 100 µM (inactive)	46.7 µM (inactive)	34.5 µM (inactive)	> 100 µM (inactive)	55.5 µM (inactive)	95.9 µM (inactive)	79.4 µM (inactive)	61 µM (inactive)	> 100 µM (inactive)	–
CC1(c2ccc[n+](Cc3ccccc3)c2)OCCO1	> 100 µM (inactive)	> 100 µM (inactive)	> 100 µM (inactive)	> 100 µM (inactive)	> 100 µM (inactive)	> 100 µM (inactive)	> 100 µM (inactive)	> 100 µM (inactive)	> 100 µM (inactive)	> 100 µM (inactive)	> 100 µM (inactive)	> 100 µM (inactive)	> 100 µM (inactive)	> 100 µM (inactive)	> 100 µM (inactive)	–	> 100 µM (inactive)
Cc1ccccc1/N=N/C(C(=O)c1ccccc1)C(=O)c1ccccc1	24.9 µM (inactive)	31.8 µM (inactive)	28 µM (inactive)	11.9 µM (inactive)	23.8 µM (inactive)	26.7 µM (inactive)	19.1 µM (inactive)	31.1 µM (inactive)	22.6 µM (inactive)	9.46 µM (inactive)	18.3 µM (inactive)	–	23.8 µM (inactive)	11.7 µM (inactive)	24.9 µM (inactive)	24 µM (inactive)	–
Cc1cc(C)n(-c2nsc3ccccc23)n1	> 100 µM (inactive)	> 100 µM (inactive)	> 100 µM (inactive)	> 100 µM (inactive)	–	> 100 µM (inactive)	26.9 µM (inactive)	> 100 µM (inactive)	89.1 µM (inactive)	> 100 µM (inactive)	> 100 µM (inactive)	> 100 µM (inactive)	> 100 µM (inactive)	–	> 100 µM (inactive)	> 100 µM (inactive)	> 100 µM (inactive)
